# Data taken from patent publication US20230218606A1, “USE OF 4-AMINOQUINOLINE COMPOUND IN TREATMENT OF CORONAVIRUS INFECTION” (priority 2020, published 2023).
# Like-named read-outs stand apart in the source and are kept apart here.
# What was measured:
# SARS-CoV-2 [1] = test: microbe, parasite or virus in culture; format: cell-based
# SARS-CoV-2 [2] = test: Example 3: co-localization of SARS-CoV-2 virus particles with early endosomes or endolysosomes (immunofluorescence); format: cell-based; conditions: 50 µM drug, veroE6 cells, MOI of 10, 90 min at 37° C.
# Procedure: (at MOI of 10); • 3) the veroE6 cells were washed twice with PBS (purchased from Gibco, Catalog No. C10010500BT) to remove unbound virus particles, freshly pre-warmed MEM culture medium containing 2% FBS was added, and then the veroE6 cells were incubated at 37° C. for 90 min; • 4) the cells were fixed, and the immunofluorescence staining of cells was performed by using anti-virus NP protein antibody (red) (preserved by Wuhan Institute of Virology, Chinese Academy of Sciences) and anti-early endosomal protein EEA antibody (green) (purchased from Cell Signaling Technology, Catalog No. 48453) or anti-lysosomal protein LAMP antibody (green) (purchased from Cell Signaling Technology company, Catalog No. 3243); the nuclei were stained with Hoechst (blue) (purchased from Invitrogen company, Catalog No. H21492); • 5) quantitative analysis of co-localization of virus particles and endosomes of the cells in each group was performed, and co-localization rate was calculated.
# Vero-E6 cells = conditions: Example 1, all test concentrations
# Procedure: (§1) The cytotoxicity test of drugs was carried out by using CCK-8 kit (Beyotime). […] The original medium in the 96-well plate was discarded, 100 µL of the drug-containing MEM medium was taken and added to the cells, and three replicate wells were set for each concentration. A vehicle control (adding DMSO and medium to cells in wells, without adding drug) and a blank control (adding DMSO and medium to the wells, without cells) were set up. After the drug was added, the cells were incubated at 37° C. for 48 hours. • ③ 20 µL of CCK-8 solution (Beyotime) was added to the well to be tested, mixed gently without generating bubbles, and incubated subsequently at 37° C. for 2 hours. OD450 was read on a microplate reader (purchased from Molecular Devices, model: SpectraMax M5), and the reading was substituted into the following formula to calculate cell viability: • [formula] • Wherein, A was the reading of the microplate reader.
# DENV-2 = conditions: cited from earlier work
# [3] = test system: Zika virus protease NS2B-NS3; conditions: read-out: inhibitory constant Ki; cited from earlier work
# ZIKV = conditions: pregnant mice, 40 mg/kg/day intraperitoneally from first day after ZIKV infection, compared to PBS; cited from earlier work
# in vitro = conditions: African green monkey
# Procedure: as §1
SMILES,"inhibition of replication of SARS-CoV-2 virus genome in the infected supernatant (SARS-CoV-2 [1]; Example 1, at 50 µM, 16.67 µM and 5.56 µM)","EC50 (SARS-CoV-2 [1]; Severe acute respiratory syndrome coronavirus 2, Vero C1008, 48 h, read-out: half-maximal effective concentration (EC50)) [µM]",co-localization rate of virus particles and early endosomes (EES) (SARS-CoV-2 [2]) [%],co-localization rate of virus particles and endolysosomes (ELs) (SARS-CoV-2 [2]) [%],toxic effect on cells (cell viability) (Vero-E6 cells),"reduction of DENV-2 virus titer (DENV-2; A549 cell line, 50 to 80 µM) [times]","IC50 (DENV-2; A549 cells, read-out: IC50 for DENV-2 infected cells) [µM]","IC50 (DENV-2; Hepa1-6 cells, read-out: IC50 for DENV-2 infected cells) [µM]","IC50 (DENV-2; J774A.1 macrophages, read-out: IC50, inhibition of DENV-2 infection of macrophages) [µM]","IC50 (DENV-2; WS-1 cells, read-out: IC50 for DENV-2 infected cells) [µM]",Ki [3] [µM],level of ZIKV infection in placenta (ZIKV),CC50 at 48 h (in vitro) [µM]
CCN(CC)CCCC(C)Nc1ccnc2cc(Cl)ccc12 (stereo not drawn) [chloroquine phosphate],could effectively inhibit the replication,1.13,35.3,2.4,no toxic effect on cells at all concentrations,–,–,–,–,–,–,–,–
"CCN(CCO)CCCC(C)Nc1ccnc2cc(Cl)ccc12 (stereo not drawn) [hydroxychloroquine, 2-[[4-[(7-chloroquinolin-4-yl)amino]pentyl]ethylamino]-ethanol]",–,–,29.2,0.03,–,100,10.1 ± 1.6,12.9 ± 4.2,9.7 ± 1.3,12.9 ± 1.9,92.3 ± 11.9,lower level of ZIKV infection,> 250
